Assay results from BigSolDB 2.1.

Cc1c(-c2ccccc2)oc2c(C(=O)OCCN3CCCCC3)cccc2c1=O.Cl
solubility (mole fraction)
Conditions	278.15 K	283.15 K	288.15 K	293.15 K	298.15 K	303.15 K	308.15 K	313.15 K	318.15 K	323.15 K
in 2-ethoxyethanol	0.000121	0.000162	0.000173	0.000211	0.000252	0.000309	0.000362	0.00044	0.000533	0.000636
in 2-methoxyethanol	0.000431	0.000521	0.000578	0.000675	0.000788	0.000931	0.00107	0.00129	0.00152	0.00182
in 2-propoxyethanol	0.000193	0.000212	0.000255	0.000303	0.000355	0.000413	0.000509	0.000593	0.000704	0.000881
in DMSO	–	–	–	0.000626	0.000775	0.000911	0.00107	0.00129	0.00152	0.0018
in NMP	0.000254	0.000334	0.00039	0.00047	0.000548	0.000646	0.000768	0.000919	0.00109	0.0013
in acetonitrile	2.88e-05	3.71e-05	4.2e-05	4.95e-05	6.13e-05	7.58e-05	8.98e-05	0.000112	0.000141	0.000174
in ethanol	8.81e-05	9.89e-05	0.000117	0.000143	0.000182	0.00022	0.000284	0.000364	0.000452	0.000565
in ethylene glycol	0.000868	0.00115	0.00136	0.00161	0.002	0.00236	0.00284	0.00347	0.00415	0.005
in methanol	0.000529	0.000637	0.000808	0.000961	0.00116	0.0014	0.00169	0.00207	0.00255	0.00317
in n-butanol	3.52e-05	4.51e-05	6.1e-05	9.1e-05	0.000124	0.000171	0.000223	0.000303	0.000374	0.000468
in n-propanol	2.87e-05	3.76e-05	4.58e-05	6.56e-05	0.000107	0.000142	0.000188	0.000252	0.000331	0.000425
in water	0.000219	0.00026	0.000301	0.000361	0.000442	0.000526	0.000629	0.000757	0.00092	0.00114
